For the test, the target named is MCH receptor (Homo sapiens, UniProt Q99705). Kind of test: High throughput functional screening FLIPR/FDSS6000: inhibition of MCH-evoked intracellular Ca2+ changes. The format is cell-based. As to conditions: for IC50: class by percent of control at 10^-7 M or by IC50, read-out: class. Summed up:
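Seed cells the day before, then load them with Fluo4-AM for one hour at 37° C and wash in HEPES-buffered HBSS, pH 7.4. Add compound for 3 min, then stimulate with 50 nM MCH. Monitor the calcium transient for 290 s.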

Take `CN(C)c1nc(N[C@H]2CC[C@@H](CNC(=S)Nc3cc(Cl)ccc3F)CC2)nc2ccccc12` [compound 797, N-(5-choloro-2-fluorophenyl)-N′-[(cis-4-{[4-(dimethylamino)-quinazolin-2-yl]amino}cyclohexyl)methyl]thiourea]: the class (class by percent of control at 10^-7 M or IC50) is on record as 3 (Class 3: The value of percent of control at 10^−7 M was more than 60% or the value of IC50 was more than 200 nM.). Consider `CN(C)c1nc(N[C@H]2CC[C@@H](CNC(=S)NCC3CC3)CC2)nc2ccccc12` [compound 800], for which the IC50 lay in the range of 50 to 200 nM.

For the compound `CCOC(=O)c1c(NC(=S)NC[C@H]2CC[C@@H](Nc3nc(N(C)C)c4ccccc4n3)CC2)sc2c1CCCC2` [compound 801, ethyl 2-[({[(cis-4-{[4-(dimethylamino)quinazolin-2-yl]amino}cyclohexyl)methyl]amino}carbonothioyl)amino]-4.5.6.7-tetrahydro-1-benzothiophene-3-carboxylate], the IC50 is greater than 200 nM. The same measure, in the same setting: the figure for `COC(=O)c1sccc1NC(=S)NC[C@H]1CC[C@@H](Nc2nc(N(C)C)c3ccccc3n2)CC1` [compound 802] is greater than 200 nM. Take `CN(C)c1nc(N[C@H]2CC[C@@H](CNC(=S)Nc3ccc(F)cc3Br)CC2)nc2ccccc12` [compound 803]: the IC50 was greater than 200 nM.

As to `CN(C)c1nc(N[C@H]2CC[C@@H](CNC(=S)Nc3ccc(F)c(Cl)c3)CC2)nc2ccccc12` [compound 804], the IC50 was greater than 200 nM. Take `CCCCc1ccc(NC(=S)NC[C@H]2CC[C@@H](Nc3nc(N(C)C)c4ccccc4n3)CC2)c(C)c1` [compound 805]: the IC50 was greater than 200 nM.

Turning to `CN(C)c1ccc(NC(=S)NC[C@H]2CC[C@@H](Nc3nc(N(C)C)c4ccccc4n3)CC2)cc1` [compound 806], the IC50 was greater than 200 nM. In the case of `CN(C)c1nc(N[C@H]2CC[C@@H](CNC(=S)NCCN3CCOCC3)CC2)nc2ccccc12` [compound 808], the IC50 is greater than 200 nM. Still for that read-out and setting: then `CN(C)c1nc(N[C@H]2CC[C@@H](CNC(=S)Nc3cccnc3)CC2)nc2ccccc12` [compound 809], with greater than 200 nM. Same read-out and setting: the figure for `CN(C)c1nc(N[C@H]2CC[C@@H](CNC(=S)NCCCN3CCOCC3)CC2)nc2ccccc12` [compound 810] is greater than 200 nM. Take `CCN(CC)c1ccc(NC(=S)NC[C@H]2CC[C@@H](Nc3nc(N(C)C)c4ccccc4n3)CC2)cc1` [compound 811]: the IC50 was greater than 200 nM. Same read-out and setting: the figure for `CN(C)c1nc(N[C@H]2CC[C@@H](CNC(=S)Nc3ccc(/N=N/c4ccccc4)cc3)CC2)nc2ccccc12` [compound 812] is greater than 200 nM; for `CN(C)c1nc(N[C@H]2CC[C@@H](CNC(=S)NCCN3CCCCC3)CC2)nc2ccccc12` [compound 813] it is greater than 200 nM. The same measure, in the same setting: the figure for `CN(C)c1nc(N[C@H]2CC[C@@H](CNC(=S)Nc3ccc(-n4cccn4)cc3)CC2)nc2ccccc12` [compound 814] is greater than 200 nM; for `CN(C)c1nc(N[C@H]2CC[C@@H](CNC(=S)Nc3cccc4nsnc34)CC2)nc2ccccc12` [compound 815] it is greater than 200 nM; for `CN(C)c1nc(N[C@H]2CC[C@@H](CNC(=S)Nc3ccc4nsnc4c3)CC2)nc2ccccc12` [compound 816] it is greater than 200 nM. The same measure, in the same setting: then `Cc1noc(C)c1NC(=S)NC[C@H]1CC[C@@H](Nc2nc(N(C)C)c3ccccc3n2)CC1` [compound 817], with greater than 200 nM; and `CN(C)c1nc(N[C@H]2CC[C@@H](CNC(=S)Nc3ccc(-c4cnco4)cc3)CC2)nc2ccccc12` [compound 818], with greater than 200 nM; and `Cc1onc(-c2ccccc2)c1NC(=S)NC[C@H]1CC[C@@H](Nc2nc(N(C)C)c3ccccc3n2)CC1` [compound 819], with 50 to 200 nM. Consider `CN(C)c1nc(N[C@H]2CC[C@@H](CNC(=S)Nc3ccc(N4CCOCC4)nc3)CC2)nc2ccccc12` [compound 820], for which the IC50 is greater than 200 nM. Same read-out and setting: then `CN(C)c1nc(N[C@H]2CC[C@@H](CNC(=S)Nc3ccc(Oc4ccccc4)nc3)CC2)nc2ccccc12` [compound 821], with greater than 200 nM; and `CN(C)c1nc(N[C@H]2CC[C@@H](NC(=O)Nc3ccc(F)cc3[N+](=O)[O-])CC2)nc2ccccc12` [compound 822, N-(cis-4-{[4-(dimethylamino)quinazolin-2-yl]amino}cyclohexyl)-N′-(4-fluoro-2-nitrophenyl)urea], with 50 to 200 nM. For `CN(C)c1nc(N[C@H]2CC[C@@H](NC(=O)Nc3ccc(F)cc3C(F)(F)F)CC2)nc2ccccc12` [compound 823], the IC50 was greater than 200 nM. Regarding `CN(C)c1nc(N[C@H]2CC[C@@H](NC(=O)NCc3ccc(F)cc3)CC2)nc2ccccc12` [compound 824, N-(cis-4-{[4-(dimethylamino)quinazolin-2-yl]amino}cyclohexyl)-N′-(4-fluorobenzyl)urea], the IC50 is less than 50 nM.

Turning to `CCCCCCCOc1ccc(NC(=O)N[C@H]2CC[C@@H](Nc3nc(N(C)C)c4ccccc4n3)CC2)cc1` [compound 825], the IC50 was greater than 200 nM. The same measure, in the same setting: then `CN(C)c1nc(N[C@H]2CC[C@@H](NC(=O)Nc3ccc(I)cc3)CC2)nc2ccccc12` [compound 826, N-(cis-4-{[4-(dimethylamino)quinazolin-2-yl]amino}cyclohexyl)-N′-(4-iodophenyl)urea], with 50 to 200 nM; and `COc1ccc(NC(=O)N[C@H]2CC[C@@H](Nc3nc(N(C)C)c4ccccc4n3)CC2)c(C)c1` [compound 827, N-(cis-4-{[4-(dimethylamino)quinazolin-2-yl]amino}cyclohexyl)-N′-(4-methoxy-2-methylphenyl)urea], with less than 50 nM. Still for that read-out and setting: then `COc1ccc(NC(=O)N[C@H]2CC[C@@H](Nc3nc(N(C)C)c4ccccc4n3)CC2)c([N+](=O)[O-])c1` [compound 828], with greater than 200 nM. The same measure, in the same setting: then `Cc1ccc(NC(=O)N[C@H]2CC[C@@H](Nc3nc(N(C)C)c4ccccc4n3)CC2)cc1[N+](=O)[O-]` [compound 829], with greater than 200 nM; and `Cc1ccc(CNC(=O)N[C@H]2CC[C@@H](Nc3nc(N(C)C)c4ccccc4n3)CC2)cc1` [compound 830, N-(cis-4-{[4-(dimethylamino)quinazolin-2-yl]amino}cyclohexyl)-N′-(4-methylbenzyl)urea], with 50 to 200 nM. For the compound `CCCCOc1ccc(NC(=O)N[C@H]2CC[C@@H](Nc3nc(N(C)C)c4ccccc4n3)CC2)cc1` [compound 831], the IC50 is greater than 200 nM. The same measure, in the same setting: the figure for `CCCCc1ccc(NC(=O)N[C@H]2CC[C@@H](Nc3nc(N(C)C)c4ccccc4n3)CC2)cc1` [compound 832] is greater than 200 nM; for `CN(C)c1nc(N[C@H]2CC[C@@H](NC(=O)Nc3ccc(-c4ccccc4)cc3)CC2)nc2ccccc12` [compound 833] it is greater than 200 nM; for `COc1cc(OC)c(NC(=O)N[C@H]2CC[C@@H](Nc3nc(N(C)C)c4ccccc4n3)CC2)cc1Cl` [compound 834, N-(5-chloro-2,4-dimethoxyphenyl)-N′-(cis-4-{[4-(dimethylamino)quinazolin-2-yl]amino}cyclohexyl)urea] it is less than 50 nM. On the same count and under the same terms, then `COc1ccc(Cl)cc1NC(=O)N[C@H]1CC[C@@H](Nc2nc(N(C)C)c3ccccc3n2)CC1` [compound 835], with greater than 200 nM; and `Cc1ccc(Cl)cc1NC(=O)N[C@H]1CC[C@@H](Nc2nc(N(C)C)c3ccccc3n2)CC1` [compound 836], with greater than 200 nM. As to `CN(C)c1nc(N[C@H]2CC[C@@H](NC(=O)Nc3cc(Cl)ccc3[N+](=O)[O-])CC2)nc2ccccc12` [compound 837], the IC50 is greater than 200 nM. Same read-out and setting: the figure for `Cc1ccc(F)cc1NC(=O)N[C@H]1CC[C@@H](Nc2nc(N(C)C)c3ccccc3n2)CC1` [compound 838, N-(cis-4-{[4-(dimethylamino)quinazolin-2-yl]amino}cyclohexyl)-N′-(5-fluoro-2-methylphenyl)urea] is 50 to 200 nM; for `CN(C)c1nc(N[C@H]2CC[C@@H](NC(=O)Nc3ccc4c(c3)CCC4)CC2)nc2ccccc12` [compound 839] it is greater than 200 nM; for `CN(C)c1nc(N[C@H]2CC[C@@H](NC(=O)NC3c4ccccc4-c4ccccc43)CC2)nc2ccccc12` [compound 840, N-(cis-4-{[4-(dimethylamino)quinazolin-2-yl]amino}cyclohexyl)-N′-9H-fluoren-9-ylurea] it is greater than 200 nM. For the compound `CN(C)c1nc(N[C@H]2CC[C@@H](NC(=O)NC3c4ccccc4-c4ccccc43)CC2)nc2ccccc12` [compound 841, N-(cis-4-{[4-(dimethylamino)quinazolin-2-yl]amino}cyclonexyl)-N′-9H-fluoren-9-ylurea], the IC50 was 50 to 200 nM. `CN(C)c1nc(N[C@H]2CC[C@@H](NC(=O)NCCc3ccccc3)CC2)nc2ccccc12` [compound 842, N-(cis-4-{[4-(dimethylamino)quinazolin-2-yl]amino}cyclonexyl)-N′-(2-phenylethyl)urea]: the IC50 is 50 to 200 nM.

As for `CN(C)c1nc(N[C@H]2CC[C@@H](NC(=O)NC3CCCC3)CC2)nc2ccccc12` [compound 843, N-cyclophenyl-N′-(cis-4-{[4-(dimethylamino)quinazolin-2-yl]amino}cyclohexyl)urea], the IC50 lay within 50 to 200 nM. For the compound `CN(C)c1nc(N[C@H]2CC[C@@H](NC(=O)NC(c3ccccc3)c3ccccc3)CC2)nc2ccccc12` [compound 844, N-(cis-4-{[4-(dimethylamino)quinazolin-2-yl]amino}cyclohexyl)-N′-(diphenylmethyl)urea], the IC50 was less than 50 nM.

In the case of `COC(=O)c1ccc(NC(=O)N[C@H]2CC[C@@H](Nc3nc(N(C)C)c4ccccc4n3)CC2)cc1` [compound 845], the IC50 is greater than 200 nM. Still for that read-out and setting: then `CN(C)c1nc(N[C@H]2CC[C@@H](NC(=O)OCCOCc3ccccc3)CC2)nc2ccccc12` [compound 846], with 50 to 200 nM; and `CN(C)c1nc(N[C@H]2CC[C@@H](NC(=O)OCC(C)(C)C)CC2)nc2ccccc12` [compound 847], with greater than 200 nM. In the case of `COc1cc(COC(=O)N[C@H]2CC[C@@H](Nc3nc(N(C)C)c4ccccc4n3)CC2)c([N+](=O)[O-])cc1OC` [compound 848], the IC50 is less than 50 nM. Same read-out and setting: the figure for `CN(C)c1nc(N[C@H]2CC[C@@H](NC(=O)Oc3cccc(C(F)(F)F)c3)CC2)nc2ccccc12` [compound 849] is greater than 200 nM.
